What was measured:
[1] = water; cited from earlier work
patients [2] = experiment: Clinical use of MSM ophthalmic drops by the inventor; format: in vivo, human
Excerpt: We have used aqueous solutions of MSM filtered, sterilized, and mixed with insulin.

[3] = tested on: individuals with macular edema; settings: fluorescein angiography; cited from earlier work
[4] = in vivo; cited from earlier work
patients [5] = settings: supplementation; cited from earlier work
[6] = after oral intake; cited from earlier work
[7] = tested on: dry mouth and dry eyes conditions; experiment: Clinical use of ADT orally and as eye drops; format: in vivo; settings: 25 mg orally and nanograms concentration in eye drops
Method: We have used ADT 25 mg orally and ADT in nanograms concentration in liquid ophthalmic eye drops with success in these conditions, especially, those on chemotherapy, menopausal women, and chronic smokers with dry mouth and dry eyes conditions. There is secretory dysfunction associated with RPE and Muller cells which are needed for proper functioning of the photoreceptors by removing ROS. This can be one of the important non toxic oral and eye drops for the treatment of age related macular degeneration (Ben-Mandi M H, Gozin A, Driss F, Andrieu V, Christen M O, Pasquier C. Anethole dithiolethione regulates oxidant-induced tyrosine kinase activation in endothelial cells. Antioxid Redox Signal. 2000 Winter, 2 (4):789-99). […] (Han S F, Yao T T, Zhang X X, Gan L, Zhu C, Yu H Z, Gan Y. Int J Pharm. Lipid-based formulations to enhance oral bioavailability of the poorly water-soluble drug anetholtrithione: effects of lipid composition and formulation. 2009 Sep. 8; 379(1):18-24. Epub 2009 Jun. 7.).

[8] = tested on: patients with neovascular ARMS; settings: intravitreous 1.25 mg injections; cited from earlier work
photoreceptor cell = settings: in vitro model; cited from earlier work
[9] = cited from earlier work
oxidized cells = settings: H2O2 induced, insulin pretreatment; cited from earlier work
[10] = local application incl. conjunctival sac, scalp, gums, wounds
Excerpt: The present invention formulations contain only 0.10 to 1.00 IU per drop which the dosage can be increased or the dosage can be decreased depending upon the disease states.

## CS(C)(=O)=O [MSM, Methylsulfonylmethane]
[1]
  solubility: soluble in water
Patients [2]; aqueous MSM mixed with insulin as eye drops, ARMD, retinitis pigmentosa, cataract, dry eye, glaucoma
  treatment outcome: good results
Patients [2]; ophthalmic drops, aged, Lyme disease and cancer patients
  patient-reported vision: their vision had improved

## CC(=O)Nc1nnc(S(N)(=O)=O)s1 [acetazolamide]
[3]
  leakage of dye into the photoreceptor area: inhibited

## Insulin detemir
[4]
  Peak action in hours: 6 to 8 h

## Insulin glargine
[4]
  Peak action in hours: 8 to 16 h

## NPH (isophane): intermediate-acting NPH (isophane) insulin
[4]
  Peak action in hours: 6 to 10 h

## Regular (soluble): short-acting regular (soluble) insulin
[4]
  Peak action in hours: 2 to 3 h

## Vitamin A
Patients [5]
  postponement of blindness: ~10 years
[6]
  time to peak blood concentration: one

## anethole dithiolethione [ADT]
[7]
  treatment outcome: success

## bevacizumab
[8]
  patients improved 10 or more letters: more than 45%

## brimonidine tartrate
Photoreceptor cell
  photoreceptor cell degeneration: prevent photoreceptor cell degeneration

## hyaluronic acid
[9]; 0.1% solution
  pH: 6.0-7.5
[9]; hydrated
  water contained relative to own weight: up to 1,000 fold

## insulin
Oxidized cells
  lipid peroxidation: significantly inhibited
[10]
  change of blood sugar levels (hypoglycemic effect): did not change the blood sugar levels

From US20110052678A1, “METHOD FOR TREATING AGE RELATED MACULAR DEGENERATION” (priority 2010, published 2011)
